Test results from publication doi:10.1101/2023.04.18.537371v1 (bioRxiv, 2023).
Peptide text beside a SMILES is read from it.

What was measured:
[1] = Plasma stability; format: in vitro ADME, human
[2] = Plasma stability; format: in vitro ADME, cynomolgus monkey
[3] = target: OAT1 (Homo sapiens, UniProt Q4U2R8); experiment: Transporter inhibition in HEK293 cells; format: in vitro ADME
[4] = target: CYP2D6 (Homo sapiens, UniProt P10635); experiment: CYP time-dependent inhibition assay; format: in vitro ADME
CYP2D6, sequence (P10635 whole entry): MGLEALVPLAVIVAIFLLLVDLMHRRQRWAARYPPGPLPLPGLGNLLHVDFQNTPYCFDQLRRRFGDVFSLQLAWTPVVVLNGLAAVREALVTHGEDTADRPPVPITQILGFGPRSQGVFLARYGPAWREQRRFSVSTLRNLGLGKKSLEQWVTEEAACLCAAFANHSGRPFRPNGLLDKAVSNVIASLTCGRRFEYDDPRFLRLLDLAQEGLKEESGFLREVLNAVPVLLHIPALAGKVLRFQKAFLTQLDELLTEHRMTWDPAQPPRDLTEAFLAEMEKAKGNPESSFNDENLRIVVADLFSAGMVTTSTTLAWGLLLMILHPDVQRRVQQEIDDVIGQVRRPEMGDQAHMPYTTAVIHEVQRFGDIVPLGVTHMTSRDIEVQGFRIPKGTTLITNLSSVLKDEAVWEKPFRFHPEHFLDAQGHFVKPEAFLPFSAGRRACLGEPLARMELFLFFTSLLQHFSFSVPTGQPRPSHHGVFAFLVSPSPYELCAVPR

[5] = Single-dose pharmacokinetics in beagle dogs; format: in vivo, beagle dog; conditions: for AUC0-last: n=3, mean
[6] = Plasma stability; format: in vitro ADME, SD rat
[7] = Metabolism of FC-12738 in SD rat plasma; format: in vivo
[8] = In vitro protein binding, rapid equilibrium dialysis; format: in vitro ADME; conditions: SD, rat, plasma
[9] = target: T1, CYP2C8 (Homo sapiens, UniProt P10632); experiment: CYP time-dependent inhibition assay; format: in vitro ADME
T1 sequence (P10632 1-490): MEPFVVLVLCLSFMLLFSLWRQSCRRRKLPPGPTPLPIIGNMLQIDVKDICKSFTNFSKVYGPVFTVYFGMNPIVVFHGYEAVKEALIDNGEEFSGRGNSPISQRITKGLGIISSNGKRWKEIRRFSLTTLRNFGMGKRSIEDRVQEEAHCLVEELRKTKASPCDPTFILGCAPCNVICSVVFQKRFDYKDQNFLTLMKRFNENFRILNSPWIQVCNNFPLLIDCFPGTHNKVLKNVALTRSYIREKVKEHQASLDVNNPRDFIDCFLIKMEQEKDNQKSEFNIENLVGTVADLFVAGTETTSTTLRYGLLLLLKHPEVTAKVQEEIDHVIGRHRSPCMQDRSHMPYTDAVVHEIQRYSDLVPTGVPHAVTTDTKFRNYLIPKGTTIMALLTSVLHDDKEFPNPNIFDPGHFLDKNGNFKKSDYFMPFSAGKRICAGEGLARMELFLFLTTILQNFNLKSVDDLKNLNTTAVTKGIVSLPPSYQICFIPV

[10] = test system: human hepatocytes; experiment: Metabolite identification in hepatocytes; format: in vitro ADME; conditions: cryopreserved human hepatocytes, FC-12738 10 μM, 37 °C, 240 min, LC-UV-MS
[11] = test system: SD rat hepatocytes; experiment: Hepatocyte stability; format: in vitro ADME; conditions: 1.00 μM
[12] = Metabolite identification in liver microsomes; format: in vitro ADME; conditions: human liver microsomes, 10 μM, 37 °C, 120 min, NADPH
[13] = Plasma stability; format: in vitro ADME, CD-1 mouse
[14] = target: P-gp (Homo sapiens, UniProt P08183); experiment: Inhibition of P-gp in Caco-2 cells; format: in vitro ADME
P-gp, sequence (P08183 whole entry): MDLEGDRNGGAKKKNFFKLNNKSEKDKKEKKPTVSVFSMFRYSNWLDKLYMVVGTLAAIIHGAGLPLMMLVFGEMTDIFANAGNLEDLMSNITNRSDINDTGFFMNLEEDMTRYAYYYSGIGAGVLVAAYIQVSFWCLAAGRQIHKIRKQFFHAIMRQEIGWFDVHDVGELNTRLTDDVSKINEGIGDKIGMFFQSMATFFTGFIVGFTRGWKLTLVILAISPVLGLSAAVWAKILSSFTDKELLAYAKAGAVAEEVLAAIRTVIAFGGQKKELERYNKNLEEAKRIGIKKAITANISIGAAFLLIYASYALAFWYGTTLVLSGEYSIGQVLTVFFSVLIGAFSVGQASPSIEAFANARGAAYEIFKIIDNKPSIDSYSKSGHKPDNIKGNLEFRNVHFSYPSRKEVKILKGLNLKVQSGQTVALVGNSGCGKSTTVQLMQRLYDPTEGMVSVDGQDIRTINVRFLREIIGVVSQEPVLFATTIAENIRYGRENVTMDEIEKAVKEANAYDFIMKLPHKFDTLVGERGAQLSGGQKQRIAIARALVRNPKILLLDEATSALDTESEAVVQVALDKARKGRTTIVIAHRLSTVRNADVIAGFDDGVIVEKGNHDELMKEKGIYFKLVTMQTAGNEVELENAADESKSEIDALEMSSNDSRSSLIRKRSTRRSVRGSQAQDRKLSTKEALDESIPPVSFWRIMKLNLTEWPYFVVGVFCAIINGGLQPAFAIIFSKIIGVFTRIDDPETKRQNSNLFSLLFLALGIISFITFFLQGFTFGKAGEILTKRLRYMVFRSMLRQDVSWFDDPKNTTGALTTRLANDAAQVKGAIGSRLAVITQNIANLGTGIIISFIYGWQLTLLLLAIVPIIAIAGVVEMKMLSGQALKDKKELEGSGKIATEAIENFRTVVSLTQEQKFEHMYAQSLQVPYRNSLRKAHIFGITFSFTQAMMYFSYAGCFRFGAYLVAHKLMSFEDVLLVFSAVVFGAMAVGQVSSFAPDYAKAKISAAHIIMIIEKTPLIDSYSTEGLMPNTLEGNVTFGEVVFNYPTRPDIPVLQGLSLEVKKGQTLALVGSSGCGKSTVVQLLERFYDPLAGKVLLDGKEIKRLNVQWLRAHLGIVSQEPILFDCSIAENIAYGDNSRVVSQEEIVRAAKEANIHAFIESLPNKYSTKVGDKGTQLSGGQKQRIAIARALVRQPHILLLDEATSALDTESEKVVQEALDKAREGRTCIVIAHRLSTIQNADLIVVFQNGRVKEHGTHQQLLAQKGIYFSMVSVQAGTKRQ

[15] = target: MATE2-K (Homo sapiens, UniProt Q86VL8); experiment: Transporter inhibition in HEK293 cells; format: in vitro ADME
MATE2-K, sequence (Q86VL8 1-566 isoform Q86VL8-3): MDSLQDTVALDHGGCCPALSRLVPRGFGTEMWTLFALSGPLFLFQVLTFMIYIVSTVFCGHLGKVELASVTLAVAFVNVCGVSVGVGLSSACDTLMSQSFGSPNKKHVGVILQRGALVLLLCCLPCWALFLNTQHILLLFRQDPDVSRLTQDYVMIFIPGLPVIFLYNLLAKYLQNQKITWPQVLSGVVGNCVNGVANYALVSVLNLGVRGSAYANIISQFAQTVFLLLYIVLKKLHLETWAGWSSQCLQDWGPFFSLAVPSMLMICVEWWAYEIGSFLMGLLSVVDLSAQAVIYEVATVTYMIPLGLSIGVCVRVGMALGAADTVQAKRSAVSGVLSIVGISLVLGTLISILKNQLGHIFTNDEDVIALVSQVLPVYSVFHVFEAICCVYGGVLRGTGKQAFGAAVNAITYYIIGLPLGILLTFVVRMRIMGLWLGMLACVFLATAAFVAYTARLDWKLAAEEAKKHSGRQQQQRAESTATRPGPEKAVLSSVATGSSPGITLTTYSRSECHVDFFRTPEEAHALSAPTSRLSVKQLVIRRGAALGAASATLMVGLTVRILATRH

[16] = test system: monkey hepatocytes; experiment: Metabolite identification in hepatocytes; format: in vitro ADME; conditions: cryopreserved monkey hepatocytes, FC-12738 10 μM, 37 °C, 240 min, LC-UV-MS
[17] = cutoff IC50 shift >= 1.5-fold, 30 min pre-incubation ± NADPH
[18] = male, beagle, dog, plasma, iv, 1 mg/kg
[19] = male, beagle, dog, plasma, sc, 5 mg/kg

OAT1, sequence (Q4U2R8 whole entry): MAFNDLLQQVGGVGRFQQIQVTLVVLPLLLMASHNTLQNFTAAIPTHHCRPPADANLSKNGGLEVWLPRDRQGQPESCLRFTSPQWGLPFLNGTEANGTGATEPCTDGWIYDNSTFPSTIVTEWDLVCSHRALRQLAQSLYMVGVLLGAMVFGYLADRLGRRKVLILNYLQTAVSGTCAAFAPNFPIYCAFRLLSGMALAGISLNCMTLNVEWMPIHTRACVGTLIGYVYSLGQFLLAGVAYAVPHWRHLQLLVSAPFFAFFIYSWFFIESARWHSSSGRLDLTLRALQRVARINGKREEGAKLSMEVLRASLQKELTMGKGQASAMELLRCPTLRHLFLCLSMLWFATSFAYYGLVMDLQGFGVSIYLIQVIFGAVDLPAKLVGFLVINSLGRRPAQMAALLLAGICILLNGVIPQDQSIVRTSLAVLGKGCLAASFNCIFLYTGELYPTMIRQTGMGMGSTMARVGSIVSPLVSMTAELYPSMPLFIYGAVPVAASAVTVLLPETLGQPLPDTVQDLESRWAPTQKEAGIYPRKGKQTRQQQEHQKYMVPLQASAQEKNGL

## CC(C)[C@@H](NC(=O)[C@H](N)Cc1ccc(O)cc1)C(=O)N[C@H](CC(=O)O)C(=O)N[C@H](CCCCN)C(=O)N[C@H](CCCNC(=N)N)C(=O)O [FC-12738, (D-Tyr)-(D-Val)-(D-Asp)-(D-Lys)-(D-Arg)] (HELM PEPTIDE1{[dY].[dV].[dD].[dK].[dR]}$$$$V2.0)
[1]; human plasma, 2.00 μM, 37.0 °C, up to 120 min
  half-life: > 6.212 h
[1]; human, plasma
  remaining at 10 min, 2 μM: 93.3%
  remaining at 0.5 h, 2 μM: 93.6%
  remaining at 1 h, 2 μM: 90.6%
  remaining at 2 h, 2 μM: 85.6%
[2]; cynomolgus monkey plasma, 2.00 μM, 37.0 °C, up to 120 min
  half-life: > 6.212 h
[2]; monkey, plasma
  remaining at 10 min, 2 μM: 105%
  remaining at 0.5 h, 2 μM: 105%
  remaining at 1 h, 2 μM: 105%
  remaining at 2 h, 2 μM: 102%
[3]
  IC50: > 100 µM
[4]
  IC50: > 100 µM
[4]; [17]
  Time-dependent inhibition of CYP2D6: no time-dependent inhibition
[5]; male beagle dogs, IV 1 mg/kg or SC 5 mg/kg single
  Tolerability / adverse effects in-life: No adverse effect was observed
[5]; male beagle dogs, IV 1 mg/kg single
  AUC0-last: 2850 ± 439 ng·h/mL
[5]; male beagle dogs, SC 5 mg/kg single
  AUC0-last: 16100 ± 2510 ng·h/mL
[5]; male beagle dogs, SC 5 mg/kg, calculated with mean AUC0-last and nominal dose
  bioavailability: 112%
[5]; [18]
  AUC(0-inf): 2900 ng·h/mL
  C0: 4820 ng/mL
  Vd: 0.302 L/kg
  clearance: 5.85 mL/min/kg
[5]; [19]
  AUC(0-inf): 16200 ng·h/mL
  Cmax: 7300 ng/mL
  Tmax: 0.833 h
  half-life: 0.884 h
[6]; SD rat plasma, 2.00 μM, 37.0 °C, up to 120 min
  half-life: > 6.212 h
[6]; SD, rat, plasma
  remaining at 10 min, 2 μM: 104%
  remaining at 0.5 h, 2 μM: 102%
  remaining at 1 h, 2 μM: 113%
  remaining at 2 h, 2 μM: 104%
[7]; male SD rat plasma 0-2 h, IV 2 mg/kg FC-12738 single
  Relative MS abundance (%Total): 97.10%
[7]; male SD rat plasma 0-4 h, SC 10 mg/kg FC-12738 single
  Relative MS abundance (%Total): 96.57%
[8]
  fraction unbound at 6 h, 0.2 µM: 0.482
  fraction unbound at 6 h, 2 µM: 0.443
  fraction unbound at 6 h, 10 µM: 0.493
[9]
  IC50: > 100 µM
[9]; [17]
  Time-dependent inhibition of CYP2C8: no time-dependent inhibition
[10]
  Relative Abundance (UV%): 91.82%
[11]; cryopreserved SD rat hepatocytes, 37.0°C, 120 min
  intrinsic clearance CLint(hep): < 1.9 μL/min/10^6 cells
[11]; cryopreserved SD rat hepatocytes, 37.0°C, 120 min, LC-MS/MS
  half-life: > 6.212 h
[11]; scaled from SD rat hepatocytes
  hepatic clearance CLint(liver): < 8.7 mL/min/kg
[12]
  Metabolites detected: No metabolites of FC-12738 were detected
[12]; LC-UV-MS
  Relative Abundance (MS Peak Area %Total): 100.00%
[13]; CD-1, mouse, plasma
  remaining at 10 min, 2 μM: 104%
  remaining at 0.5 h, 2 μM: 100%
  remaining at 1 h, 2 μM: 111%
  remaining at 2 h, 2 μM: 100%
[13]; CD-1 mouse plasma, 2.00 μM, 37.0 °C, up to 120 min
  half-life: > 6.212 h
[14]
  IC50: > 100 µM
[15]
  IC50: > 100 µM
[16]
  Relative Abundance (UV%): 89.24%
